Source: US6867179B1, “Methods of inducing hair growth and coloration” (Trustees of Boston University, priority 1994, dated 2005)

Tests used:
p75 = assay: Regulation of p75 mRNA in melanocytes by agents that increase cAMP; assay type: cell-based, human; settings: forskolin 50 μM or IBMX 100 μM, within 24 hours
Experimental: MC were stimulated with growth factor-containing medium supplemented with forskolin (50 μM) or IBMX (100 μM) that increase cAMP levels. […] To determine if ultraviolet (UV) irradiation that induces cutaneous injury upregulates p75, MC were sham- or UV-irradiated with solar simulated light (30 mJ/cm^2, metered at 285+5 nm). […] Furthermore, 48 hours after irradiation, cAMP levels were >70% decreased in UV- vs sham-irradiated cells.

p75^NTR = biological target: T1, p75^NTR (Homo sapiens, UniProt P08138); settings: lysine 34 replaced by alanine; cited from earlier work
T1 sequence (P08138 29-427): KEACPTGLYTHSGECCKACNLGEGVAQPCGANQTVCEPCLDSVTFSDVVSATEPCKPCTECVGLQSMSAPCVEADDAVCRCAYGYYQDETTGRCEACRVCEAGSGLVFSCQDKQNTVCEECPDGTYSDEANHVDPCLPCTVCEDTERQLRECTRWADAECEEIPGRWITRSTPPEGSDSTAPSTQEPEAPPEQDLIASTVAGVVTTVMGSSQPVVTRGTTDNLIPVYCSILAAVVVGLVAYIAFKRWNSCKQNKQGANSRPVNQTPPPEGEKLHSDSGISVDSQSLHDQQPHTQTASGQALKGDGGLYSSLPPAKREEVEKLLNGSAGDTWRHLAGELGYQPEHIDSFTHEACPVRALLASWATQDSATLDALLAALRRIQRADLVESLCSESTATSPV

With `CC(C)Cn1c(=O)n(C)c(=O)c2[nH]cnc21` [IBMX] the “p75 mRNA upregulation” value (p75) was “substantially inhibited this upregulation”.

In the case of “mutant NGF: NGF in which lysine (K) at position 34 is replaced by alanine (A)”, the “Lowering of affinity for p75NTR relative to NGF” value (p75^NTR) is listed as 50%.
